# Measurements as given in patent US20150297623A1, “METHODS FOR TREATMENT OF PRIMARY CANCER AND CANCER METASTASIS” (THE BOARD OF REGENTS OF THE UNIVERSITY OF TEXAS SYSTEM, priority 2012, published 2015).
# What was measured:
# MDA-MB-231 cells [1] = assay: Transwell cell migration assay, MDA-MB-231; assay type: cell-based, human; settings: for effect on migration of MDA-MB-231 cells: 200 μM
# Procedure: (§1) MLO-Y4 cells were seeded onto 150 mm dishes (Corning) and incubated for 24 hr to allow attachment, after which media was removed and changed with α-modified essential medium (α-MEM) without phenol red (Gibco) supplemented with 2.5% FBS and 2.5% BCS (Hyclone). MLO-Y4 cells were incubated in the absence or present of 20 μM AD in a 5% CO2 incubator at 37° C. for 48 hr and the CM was collected.
# (§2) Migration assays were performed in transwell membrane filter inserts in 24-well tissue culture plates (BD Biosciences San Jose, Calif., USA). The transwell membrane filter inserts contained 6.5-mm diameter, 8-μm pore size, […] thick polycarbonate membranes. The breast cancer cell lines were harvested and resuspended in CM from MLO-Y4 cells with or without other compounds. Five-hundred microliter breast cancer cell suspensions were added to the upper side of the inserts at a density of 10×10^4 cells/insert and 750 μl CM with or without other compounds was added to the lower wells. Cells were incubated at 37° C. for 18-20 hr. […] The number of migrated cells in 5 fields of view per insert was counted under a light microscope at magnification 10×.
# MDA-MB-231 cells [2] = assay: WST-1 cell proliferation assay; assay type: cell-based, human; settings: for effect on cell proliferation: concentrations as used in migration assay / various concentrations
# Procedure: Cell viability was assessed using WST-1 (Water Soluble Tetrazolium salts) assay (Roche). A single cell suspension was plated in 96-well plates at 2.0×10^4 cells/well and allowed to attach to the plates at 37° C. for 2 hr. […] After the treatment, cell viability was measured by adding 10 μl of Cell Proliferation Reagent WST-1 to each well and incubated for 1 hr at 37° C. in a 5% CO2 incubator. The cell proliferation was measured at an […] wavelength of 450 nm with a Synergy HT Multi-Mode Microplate Reader (Biotek).
# [3] = system: Py8119 mouse mammary carcinoma cells; assay: Transwell cell migration assay, Py8119; assay type: cell-based
# Procedure: as §1, §2
# MDA-MB-231 cells [4] = assay: Soft agar colony formation assay (anchorage-independent growth); assay type: cell-based, human; settings: about 2 weeks (control 82±4.5)
# Procedure: For anchorage-independent cell growth, MDA-MB-231 cells were plated in 0.4% agarose with complete medium supplemented with either 100 μM ATPγS or 200 μM adenosine on top of a 0.8% agarose base supplemented with complete medium. Cells were maintained for about 2 weeks before staining with p-iodonitrotetrazolium violet (Sigma-Aldrich, St. Louis, Mo.). Images were captured by using a scanner and the numbers of colonies were counted.
# MDA-MB-231 cells [5] = assay: Orthotopic MDA-MB-231 xenograft in mammary fat pads of nude mice; assay type: in vivo, mouse; settings: for tumor growth rate in comparison to the control group: 400 μmol per mouse IP three times a week
# Procedure: To test if ATP has a similar, inhibitory effect on tumor growth in vivo, the inventors used an orthotopic mouse model. MDA-MB-231 cells were orthotopically implanted into the mammary fat pads of athymic female nude mice. After the mice were randomly assigned into 3 different treatment groups, the mice were treated with or without ATPγS or adenosine. The ATPγS and adenosine were administered through IP injections at 400 μmol per mouse three times a week. The control mice were injected IP with saline. Dosages were determined by a previous study showing no toxicity from IP injections of up to 50 mM of adenine nucleotides into mice for 10 days. Tumor sizes were measured once every three to four days throughout the treatment period. At the end of the study, the tumors were excised and weighed. […] The reduced mean tumor volume of the treatment group was statistically significant after 17 days of ATPγS treatment. […] Additionally, the adenosine-treated group had 50% increased tumor sizes compared to the control group tumors (FIG. 7B).
# MDA-MB-231 cells were injected subcutaneously in the mammary fat pad of 4-week-old female nu/nu athymic nude mice. Each mouse received bilateral subcutaneous inoculation in both the left and right inguinal mammary fat pad areas with 100 μl of cell suspension containing ˜1×10^7 cells/ml in serum-free media. Animals were randomly assigned to 3 different groups, and solid tumors were allowed to form up to about 5 mm^3 volume before treatments began. ATPγS, at 400 μmol/500 μl saline, adenosine, at 400 μmol/500 μl saline, or 500 μl of saline, were administered intraperitoneally (IP) three times a week for 3 weeks. The growth of xenograft tumors was monitored twice a week and tumor size was measured with a caliper in two dimensions. Tumor volumes were calculated with the equation V=(L×W^2)×0.5 (mm^3), where L is length and W is width of a tumor.
# [6] = system: Py8119 mammary carcinoma cells; assay: Intratibial injection of Py8119/Luc-GFP cells, bioluminescence imaging; assay type: in vivo, mouse
# Procedure: To assess how systemic treatment with ATPγS may affect the growth of breast cancer cells in the bone microenvironment of a syngeneic host, the inventors performed intratibial injections in wild-type C57b1/6 female mice using the mouse mammary carcinoma cell line Py8119. The mammary tumor cells were injected into the right tibias of the female mice, and the tumor growth was monitored with whole animal imaging once a week for 4 weeks. The mice were treated with IP injection of saline supplemented with or without 400 μmol ATPγS three times a week. […] Quantification data (lower panels) further confirmed the significant decrease of tumor growth in bone with the treatment of ATPγS. Mice were anesthetized by isoflurane and were also given buprenorpine-HCl (0.3 mg/ml) as an analgesic. Py8119 cells expressing Luc-GFP (1×10^5 in 20 μl of PBS) were inoculated into the bone marrow area of right tibias through the pre-made hole by a Hamilton syringe fitted with a 30-gauge needle. […] Intratibial tumor growth was monitored with bioluminescence imaging with a Xenogen IVIS-Spectrum imaging system (Xenogen, Alameda, Calif., USA) every week starting from 3 days after tumor cell inoculation. […] Analysis was performed using LivingImage software (Xenogen) by measurement of photon flux (measured in photons/sec/cm^2/steradian) with a region of interest (ROI) drawn around the bioluminescence signal to be measured. […]
compound,measurement,setting,value
2′(3′)-O-(4-Benzoylbenzoyl)adenosine-5′-triphosphate tri(triethylammonium) salt [BzATP],number of migrating MDA-MB-231 cells,MDA-MB-231 cells [1]; compound 10 μM,99±7.8 cells
same,number of migrating MDA-MB-231 cells,MDA-MB-231 cells [1]; compound 100 μM,64±4.4 cells
same,number of migrating MDA-MB-231 cells,MDA-MB-231 cells [1]; compound 200 μM,39±2.6 cells
same,effect on cell proliferation (WST-1),MDA-MB-231 cells [2]; 400 μM,significant reduction
same,effect on cell proliferation (WST-1),MDA-MB-231 cells [2]; concentrations 1-200 μM,minimal effects
"CCOc1nc2c(N)ncnc2n1CC [ANR94, 8-Ethoxy-9-ethyl-9H-purin-6-amine]",effect on ATP-increased migration of MDA-MB-231 cells,"MDA-MB-231 cells [1]; 100 μM ANR94, 200 μM ATP, 20 hr",attenuated
same,effect on adenosine-increased migration of MDA-MB-231 cells,"MDA-MB-231 cells [1]; 100 μM ANR94, 200 μM adenosine, 20 hr",attenuated
CCN(CC)c1ncnc2c1ncn2[C@@H]1O[C@H](COP(=O)(O)OP(=O)(O)C(Br)(Br)P(=O)(O)O)[C@@H](O)[C@H]1O [ARL67156],effect on the stimulatory effect of higher dosage of ATP on migration,"MDA-MB-231 cells [1]; 200 μM ARL67156, 200 μM ATP",attenuated
same,effect on cell proliferation,MDA-MB-231 cells [2],not caused by changes in cell proliferation
"Nc1ncnc2c1ncn2[C@@H]1O[C@H](COP(=O)(O)OP(=O)(O)OP(=O)(O)O)[C@@H](O)[C@H]1O [ATP, adenosine-5′-triphosphate]",number of migrated MDA-MB-231 cells,MDA-MB-231 cells [1]; 200 μM ATP added to CM from non-AD-treated MLO-Y4 cells (control 127±2),188±33.5
same,number of migrated MDA-MB-231 cells,MDA-MB-231 cells [1]; 200 μM ATP added to CM-AD (control 88±10.7),153±21.1
same,effect on migration of MDA-MB-231 cells,MDA-MB-231 cells [1]; 20 hr,increased migration
same,number of migrating MDA-MB-231 cells,MDA-MB-231 cells [1]; compound 50 μM,100±17.7 cells
same,number of migrating MDA-MB-231 cells,MDA-MB-231 cells [1]; compound 200 μM,257±26 cells
same,number of migrating MDA-MB-231 cells,MDA-MB-231 cells [1]; compound 400 μM,240±0.9 cells
same,effect on cell proliferation,MDA-MB-231 cells [2],not caused by alterations of cell proliferation
same,number of migrated Py8119 cells,[3]; 400 μM ATP in CM (control 254±25.9),159±7.8 cells
same,number of migrated Py8119 cells,[3]; 400 μM ATP in CM-AD (control 127±0.3),88±10.3 cells
"Nc1ncnc2c1ncn2[C@@H]1O[C@H](COP(=O)([O-])OP(=O)([O-])OP([O-])([O-])=S)[C@@H](O)[C@H]1O.[Li+].[Li+].[Li+].[Li+] [ATPγS, adenosine 5′-[γ-thio]triphosphate tetralithium salt]",number of migrated MDA-MB-231 cells,MDA-MB-231 cells [1]; 100 μM ATPγS in control CM (control 112±2.4),63±9.6 cells
same,number of migrating MDA-MB-231 cells,MDA-MB-231 cells [1]; compound 50 μM,46±9.3 cells
same,number of migrating MDA-MB-231 cells,MDA-MB-231 cells [1]; compound 100 μM,33±3.3 cells
same,number of migrating MDA-MB-231 cells,MDA-MB-231 cells [1]; compound 200 μM,11±1.7 cells
same,number of migrating MDA-MB-231 cells,MDA-MB-231 cells [1]; compound 400 μM,9±1.5 cells
same,colony formation of MDA-MB-231 cells in soft agar,MDA-MB-231 cells [4]; 100 μM ATPγS,47±6.2 colonies
same,effect on migration of Py8119 cells,[3]; 100 μM ATPγS in CM / CM-AD,decreased
same,decrease of size of excised tumors vs control group,"MDA-MB-231 cells [5]; 400 μmol ATPγS IP three times a week, post mortem",over 4 fold
same,tumor growth rate in comparison to the control group,MDA-MB-231 cells [5],significantly reduced
same,tumor growth in the tibias (bioluminescence),[6]; 400 μmol ATPγS IP three times a week,significantly inhibited
same,"tumor burden (bioluminescence signals, dorsal and ventral)","[6]; 400 μmol ATPγS IP, after 4 weeks of treatment",dramatic reduction
"CCCn1c(=O)c2[nH]c(-c3ccc(OCC(=O)Nc4ccc(C#N)cc4)cc3)nc2n(CCC)c1=O [MRS1754, N-(4-Cyanophenyl)-2-[4-(2,3,6,7-tetrahydro-2,6-dioxo-1,3-dipropyl-1H-purin-8-yl)phenoxy]-acetamide]",effect on the inhibitory effect of CM-AD on cell migration,MDA-MB-231 cells [1]; 500 nM MRS1754,further augmented the inhibitory effect
same,effect on the stimulatory effect of ATP on migration,"MDA-MB-231 cells [1]; 500 nM MRS1754, 200 μM ATP, in CM / CM-AD",attenuated
same,effect on adenosine-induced increase of MDA-MB-231 cell migration,"MDA-MB-231 cells [1]; 500 nM MRS1754, 200 μM adenosine, in CM",completely attenuated
same,effect on the increase of migration caused by apyrase treatment,"MDA-MB-231 cells [1]; 500 nM MRS1754, apyrase 5 units/ml, in CM",significantly attenuated
same,effect on adenosine-enhanced migration of Py8119 cells,[3],inhibited
Nc1ncnc2c1ncn2[C@@H]1O[C@H](CO)[C@@H](O)[C@H]1O [adenosine],effect on MDA-MB-231 cell migration,MDA-MB-231 cells [1]; 200 μM adenosine in CM from MLO-Y4 cells,increased
same,effect on migration of MDA-MB-231 cells,MDA-MB-231 cells [1]; 20 hr,increases
same,effect on cell proliferation,MDA-MB-231 cells [2],minimal effects
same,colony formation of MDA-MB-231 cells in soft agar,MDA-MB-231 cells [4]; 200 μM adenosine,132±13.7 colonies
same,increase of tumor sizes compared to control group,"MDA-MB-231 cells [5]; 400 μmol adenosine IP three times a week, post mortem",50%
same,tumor growth rate in comparison to the control group,MDA-MB-231 cells [5],increase
Nc1ncnc2c1ncn2[C@@H](C=O)O[C@@H](C=O)COP(=O)(O)OP(=O)(O)OP(=O)(O)O [oATP],effect on the inhibitory effect of CM-AD on MDA-MB-231 cell migration,MDA-MB-231 cells [1]; 300 μM oATP,significantly attenuated
apyrase,increase of MDA-MB-231 cell migration,MDA-MB-231 cells [1]; apyrase 5 units/ml in CM-AD,7.7 fold
same,increase of MDA-MB-231 cell migration,MDA-MB-231 cells [1]; apyrase 5 units/ml in untreated CM,2.5 fold
